Measured values as given in patent publication US10597388B2, “Pyridazinone herbicides” (FMC CORPORATION, priority 2014, dated 2020).

Assays:
Format in all cases: in vivo
[1] = system: pigweed (Amaranthus retroflexus); assay: Test C greenhouse herbicide test, pre- and postemergence
Source text: (§1) Seeds of plant species selected from blackgrass (Alopecurus myosuroides), ryegrass, Italian (Italian ryegrass, Lolium multiflorum), wheat (winter wheat, Triticum aestivum), galium (catchweed bedstraw, Galium aparine), corn (Zea mays), large crabgrass, large (large crabgrass, Digitaria sanguinalis), foxtail, giant (giant foxtail, Setaria faberii), johnsongrass (Sorghum halepense), lambsquarters (Chenopodium album), morningglory (Ipomoea coccinea), nutsedge, yellow (yellow nutsedge, Cyperus esculentus), pigweed (Amaranthus retroflexus), ragweed (common ragweed, Ambrosia elatior), soybean (Glycine max), barnyardgrass (Echinochloa crus-galli), oilseed rape (Brassica napus), waterhemp (common waterhemp, Amaranthus rudis), and velvetleaf (Abutilon theophrasti) were planted into a blend of loam soil and sand and treated preemergence with test chemicals formulated in a non-phytotoxic solvent mixture which included a surfactant.
(§2) At the same time, plants selected from these crop and weed species and also chickweed (common chickweed, Stellaria media), kochia (Kochia scoparia), and oat, wild (wild oat, Avena fatua), were planted in pots containing Redi-Earth® planting medium (Scotts Company, 14111 Scottslawn Road, Marysville, Ohio 43041) comprising spaghnum peat moss, vermiculite, wetting agent and starter nutrients and treated with postemergence applications of test chemicals formulated in the same manner. Plants ranged in height from 2 to 18 cm (1- to 4-leaf stage) for postemergence treatments. Treated plants and controls were maintained in a greenhouse for 13 to 15 d, after which time all species were compared to controls and visually evaluated. Plant response ratings, summarized in Table C, are based on a scale of 0 to 100 where 0 is no effect and 100 is complete control. A dash (-) response means no test result.

[2] = system: blackgrass (Alopecurus myosuroides); assay: as above
Source text: as §1, §2

[3] = system: nutsedge, yellow (yellow nutsedge, Cyperus esculentus); assay: as above
Source text: as §1, §2

[4] = system: ryegrass, Italian (Italian ryegrass, Lolium multiflorum); assay: as above
Source text: as §1, §2

[5] = system: soybean (Glycine max); assay: as above
Source text: as §1, §2

[6] = system: barnyardgrass (Echinochloa crus-galli); assay: as above
Source text: as §1, §2

[7] = system: ragweed (common ragweed, Ambrosia elatior); assay: as above
Source text: as §1, §2

[8] = system: galium (catchweed bedstraw, Galium aparine); assay: as above
Source text: as §1, §2

[9] = system: velvetleaf (Abutilon theophrasti); assay: as above
Source text: as §1, §2

[10] = system: oat, wild (wild oat, Avena fatua); assay: Test C greenhouse herbicide test, postemergence; details: Postemergence, scale 0 to 100 (0 no effect, 100 complete control)
Source text: as §2

[11] = system: kochia (Kochia scoparia); assay: Test C greenhouse herbicide test, postemergence; details: Postemergence, scale 0 to 100 (0 no effect, 100 complete control)
Source text: as §2

[12] = system: blackgrass (Alopecurus myosuroides); assay: Test A greenhouse herbicide test, postemergence
Outline: (§3)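 Plants grown in loam soil/sand blend pots were treated postemergence at 2 to 10 cm height, one- to two-leaf stage, with formulated test chemicals. After approximately 10 d in a greenhouse, injury was rated visually against untreated controls on a 0 to 100 scale (0 no effect, 100 complete control).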

[13] = system: galium (catchweed bedstraw, Galium aparine); assay: Test A greenhouse herbicide test, postemergence
Outline: as §3

[14] = 4 g ai/ha, preemergence, visual rating, scale 0 to 100 (0 no effect, 100 complete control), 13 to 15 d
[15] = Postemergence, 8 g ai/ha, scale 0 to 100 (0 no effect, 100 complete control)
[16] = Postemergence, 16 g ai/ha, scale 0 to 100 (0 no effect, 100 complete control)
[17] = Postemergence, 31 g ai/ha, scale 0 to 100 (0 no effect, 100 complete control)
[18] = Preemergence, 16 g ai/ha, scale 0 to 100, 0 is no effect, 100 is complete control
[19] = Preemergence, 31 g ai/ha, scale 0 to 100, 0 is no effect, 100 is complete control
[20] = Postemergence, 4 g ai/ha, scale 0 to 100 (0 no effect, 100 complete control)
[21] = Preemergence, 8 g ai/ha, scale 0 to 100, 0 is no effect, 100 is complete control
[22] = 125 g ai/ha, 0 to 100 scale where 0 is no effect and 100 is complete control
[23] = 500 g ai/ha, visual rating after approx. 10 d, 0 to 100 scale (0 no effect, 100 complete control)

How did the “Plant response rating, Pigweed” value [1, 14] turn out when `Cc1ccc2ccc(Cl)cc2c1-c1c(O)c(C)nn(C)c1=O` [Compound 144] was run?
The value was 75.

What about the “Pigweed plant response rating” value [1, 15] of the same molecule?
Its value is 80.

And the “Plant response rating, Pigweed” value [1, 15]?
The value was 85.

And the “Plant response rating, Pigweed” value [1, 16]?
The value was 85.

What about the “Plant response rating, Pigweed” value [1, 17] of the same molecule?
The value was 90.

And the “Plant response rating, Pigweed” value [1, 18]?
The value was 100.

What about the “Plant response rating, Pigweed” value [1, 19] of the same molecule?
The value was 100.

What about the “Plant response rating, Blackgrass” value [2, 14] of the same molecule?
Its value is 30.

And the “Plant response rating, Blackgrass” value [2, 20]?
The value was 30.

And the “Plant response rating, Blackgrass” value [2, 15]?
Its value is 30.

And the “Plant response rating, Blackgrass” value [2, 16]?
Its value is 20.

What about the “Plant response rating, Blackgrass” value [2, 17] of the same molecule?
The value was 35.

And the “Plant response rating, Blackgrass” value [2, 21]?
Its value is 55.

And the “Plant response rating, Blackgrass” value [2, 18]?
Its value is 70.

What about the “Plant response rating, Blackgrass” value [2, 19] of the same molecule?
Its value is 90.

And the “Plant response rating, Nutsedge, Yellow” value [3, 14]?
The value was 5.

And the “Nutsedge, Yellow plant response rating” value [3, 15]?
The value was 10.

And the “Plant response rating, Nutsedge, Yellow” value [3, 15]?
Its value is 60.

What about the “Plant response rating, Nutsedge, Yellow” value [3, 16] of the same molecule?
The value was 60.

And the “Plant response rating, Nutsedge, Yellow” value [3, 17]?
The value was 75.

What about the “Plant response rating, Nutsedge, Yellow” value [3, 18] of the same molecule?
Its value is 25.

What about the “Plant response rating, Nutsedge, Yellow” value [3, 19] of the same molecule?
The value was 40.

What about the “Plant response rating, Ryegrass, Italian” value [4, 14] of the same molecule?
The value was 80.

And the “Plant response rating, Ryegrass, Italian” value [4, 15]?
Its value is 35.

What about the “Ryegrass, Italian plant response rating” value [4, 15] of the same molecule?
The value was 20.

And the “Plant response rating, Ryegrass, Italian” value [4, 16]?
The value was 45.

What about the “Plant response rating, Ryegrass, Italian” value [4, 17] of the same molecule?
Its value is 70.

What about the “Plant response rating, Ryegrass, Italian” value [4, 18] of the same molecule?
Its value is 100.

And the “Plant response rating, Ryegrass, Italian” value [4, 19]?
The value was 100.

And the “Plant response rating, Soybean” value [5, 14]?
The value was 10.

What about the “Plant response rating, Soybean” value [5, 15] of the same molecule?
Its value is 40.

What about the “Soybean plant response rating” value [5, 15] of the same molecule?
The value was 45.

What about the “Plant response rating, Soybean” value [5, 16] of the same molecule?
The value was 25.

And the “Plant response rating, Soybean” value [5, 17]?
The value was 25.

And the “Plant response rating, Soybean” value [5, 18]?
Its value is 0.

What about the “Plant response rating, Soybean” value [5, 19] of the same molecule?
Its value is 5.

And the “Plant response rating, Barnyardgrass” value [6, 14]?
The value was 0.

What about the “Plant response rating, Barnyardgrass” value [6, 20] of the same molecule?
The value was 15.

And the “Plant response rating, Barnyardgrass” value [6, 15]?
Its value is 25.

And the “Plant response rating, Barnyardgrass” value [6, 16]?
Its value is 35.

And the “Plant response rating, Barnyardgrass” value [6, 17]?
Its value is 65.

What about the “Plant response rating, Barnyardgrass” value [6, 21] of the same molecule?
Its value is 0.

And the “Plant response rating, Barnyardgrass” value [6, 18]?
The value was 5.

What about the “Plant response rating, Barnyardgrass” value [6, 19] of the same molecule?
Its value is 35.

And the “Plant response rating, Ragweed” value [7, 14]?
The value was 70.

What about the “Plant response rating, Ragweed” value [7, 15] of the same molecule?
The value was 10.

What about the “Ragweed plant response rating” value [7, 15] of the same molecule?
The value was 10.

What about the “Plant response rating, Ragweed” value [7, 16] of the same molecule?
Its value is 35.

And the “Plant response rating, Ragweed” value [7, 17]?
Its value is 35.

And the “Plant response rating, Ragweed” value [7, 18]?
Its value is 95.

And the “Plant response rating, Ragweed” value [7, 19]?
Its value is 98.

What about the “Plant response rating, Galium” value [8, 14] of the same molecule?
Its value is 90.

And the “Galium plant response rating” value [8, 15]?
Its value is 80.

What about the “Plant response rating, Galium” value [8, 15] of the same molecule?
The value was 90.

What about the “Plant response rating, Galium” value [8, 16] of the same molecule?
Its value is 90.

And the “Plant response rating, Galium” value [8, 17]?
The value was 95.

What about the “Plant response rating, Galium” value [8, 18] of the same molecule?
The value was 95.

What about the “Plant response rating, Galium” value [8, 19] of the same molecule?
The value was 100.

And the “Plant response rating, Velvetleaf” value [9, 14]?
Its value is 25.

And the “Plant response rating, Velvetleaf” value [9, 15]?
Its value is 70.

What about the “Velvetleaf plant response rating” value [9, 15] of the same molecule?
Its value is 50.

What about the “Plant response rating, Velvetleaf” value [9, 16] of the same molecule?
Its value is 90.

What about the “Plant response rating, Velvetleaf” value [9, 17] of the same molecule?
The value was 85.

What about the “Plant response rating, Velvetleaf” value [9, 18] of the same molecule?
The value was 85.

And the “Plant response rating, Velvetleaf” value [9, 19]?
Its value is 90.

What about the “Oat, Wild plant response rating” value ([10]; 8 g ai/ha) of the same molecule?
Its value is 80.

And the “Plant response rating, Oat, Wild” value ([10]; 8 g ai/ha)?
Its value is 90.

And the “Plant response rating, Oat, Wild” value ([10]; 16 g ai/ha)?
The value was 90.

And the “Plant response rating, Oat, Wild” value ([10]; 31 g ai/ha)?
The value was 90.

What about the “Kochia plant response rating” value ([11]; 8 g ai/ha) of the same molecule?
The value was 90.

And the “Plant response rating, Kochia” value ([11]; 8 g ai/ha)?
The value was 90.

What about the “Plant response rating, Kochia” value ([11]; 16 g ai/ha) of the same molecule?
The value was 98.

What about the “Plant response rating, Kochia” value ([11]; 31 g ai/ha) of the same molecule?
Its value is 98.

What about the “Plant response rating, Blackgrass” value [12, 22] of the same molecule?
The value was 90.

And the “Plant response rating, Blackgrass” value [12, 23]?
Its value is 100.

What about the “Plant response rating, Galium” value [13, 22] of the same molecule?
Its value is 100.

What about the “Plant response rating, Galium” value [13, 23] of the same molecule?
The value was 100.
